Reference: patent publication US9131698B2, “Biocidal compositions and methods of use” (Dow Global Technologies LLC, priority 2011, dated 2015)

How the values were obtained:
Format in all cases: cell-based
[1] = system: Pseudomonas aeruginosa ATCC 10145 and Staphylococcus aureus ATCC 6538; experiment: Biocidal efficacy against aerobic bacteria, 2 hr, minimum concentration for complete bacterial kill; details: 37° C.
Procedure: (§1) The synergy indexes reported in the following examples are calculated using the following equation: Synergy Index=Ca/CA+Cb/CB
(§2) Ca: Concentration of biocide A required to achieve a certain level of bacterial kill when used in combination with B
(§3) CA: Concentration of biocide A required to achieve a certain level of bacterial kill when used alone
(§4) Cb: Concentration of biocide B required to achieve a certain level of bacterial kill when used in combination with A
(§5) CB: Concentration of biocide B required to achieve a certain level of bacterial kill when used alone.
(§6) A synergy index (SI) of 1 indicates additivity, a synergy index of less than 1 indicates synergy, and a synergy index greater than 1 indicates antagonism.
(§7) Synergy Index is then calculated.

[2] = system: Desulfovibrio longus ATCC 51456; experiment: Biocidal efficacy against anaerobic bacteria, 24 hours, minimum concentration for 99.999% bacterial reduction; details: 35° C.
Procedure: as §1, §2, §3, §4, §5, §6
(§8) Inside an anaerobic chamber (Bactron anaerobic chamber), a deoxygenated sterile salt solution (3.1183 g of NaCl, 1.3082 mg of NaHCO3, 47.70 mg of KCl, 72.00 mg of CaCl2, 54.49 mg of MgSO4, 172.28 mg of Na2SO4, 43.92 mg of Na2CO3 in 1 L water) is inoculated with Desulfovibrio longus ATCC 51456 to a final bacterial concentration of 10^6 to 10^7 CFU/mL.

[3] = system: Pseudomonas aeruginosa ATCC 10145 and Staphylococcus aureus ATCC 6538; experiment: Biocidal efficacy against aerobic bacteria, 24 hours, minimum concentration for 99.9% bacterial kill; details: 37° C.
Procedure: as §1, §2, §3, §4, §5, §6, §7

[4] = system: Desulfovibrio longus ATCC 51456; experiment: Biocidal efficacy against SRB, 2 hour treatment time
Procedure: as §1, §2, §3, §4, §5, §6, §8

[5] = system: Biofilms of Desulfovibrio longus ATCC 51456; experiment: Biofilm removal, Calgary Biofilm Device, crystal violet staining; details: 2 hours treatment
Procedure: Biofilms of Desulfovibrio longus ATCC 51456 are grown in a Calgary Biofilm Device (Innovotech, Alberta, Canada) at 35° C. and under anaerobic conditions for 72 hours with shaking (125 rpm). Modified Baar's Medium (ATCC #1249 Broth) is used as culture medium and the medium is changed after 48 hrs of incubation. […] After biocide treatment, the pegs are rinsed again with deoxygenated sterile 0.85% NaCl solution and then the total biofilm left on each peg is measured according to the following description. The biofilm is fixed with 99% methanol and, after air drying, the pegs are stained with 2% (w/v) crystal violet and washed with tap water. The pegs are then air dried and the crystal violet bound to the biofilm is extracted with 33% glacial acetic acid. The total remaining biofilm is determined by the optical density (OD) of the extracted solution at 580 nm.

[6] = PHMB part of minimum concentration
[7] = THPS part of minimum concentration

Q: “tetrakis (hydroxymethyl) phosphonium sulfate [THPS]” was tested. Which “Concentration (ppm a.i.) for aerobic bacteria kill, PHMB” value ([1]; PHMB part of minimum concentration for complete bacterial kill) did it give?
A: 0 ppm a.i.

Q: What about the “Concentration (ppm a.i.) for aerobic bacteria kill, THPS” value ([1]; THPS part of minimum concentration for complete bacterial kill) of the same substance?
A: 50 ppm a.i.

Q: What about the “Concentration (ppm a.i.) for anaerobic bacteria kill, PHMB” value ([2]; PHMB part of minimum tested concentration for 99.999% bacterial reduction) of the same substance?
A: 0.0 ppm a.i.

Q: And the “Concentration (ppm a.i.) for anaerobic bacteria kill, THPS” value ([2]; THPS part of minimum tested concentration for 99.999% bacterial reduction)?
A: 8.8 ppm a.i.

Q: And the “Concentration (ppm a.i.) for 99.9% bacterial kill, PHMB” value [3, 6]?
A: 0.0 ppm a.i.

Q: What about the “Concentration (ppm a.i.) for 99.9% bacterial kill, THPS” value [3, 7] of the same substance?
A: 19.8 ppm a.i.

Q: And the “Concentration (ppm a.i.) for complete SRB kill, PHMB” value [4, 6]?
A: 0.0 ppm a.i.

Q: What about the “Concentration (ppm a.i.) for complete SRB kill, THPS” value [4, 7] of the same substance?
A: 22.2 ppm a.i.

Q: And the “Remaining biofilm, OD580 (optical density of biofilm captured crystal violet)” value ([5]; 50 ppm active)?
A: 0.59

Q: What about the “Remaining biofilm, OD580 (optical density of biofilm captured crystal violet)” value ([5]; 200 ppm active) of the same substance?
A: 1.03
